Measured values from ChEMBL document CHEMBL1777809, “Osteogenic activity of diphenyl ether-type cyclic diarylheptanoids derived from Acer nikoense” (Bioorg Med Chem Lett, 2011).
Calls of active or inactive are those of the source. The rule behind the calls is not given here.

test system: MC3T3-E1; assay: Induction of osteogenesis in mouse MC3T3-E1 cells assessed as increase in alkaline phosphatase activity at 30 uM after 6 days in presence of 50 ng/ml noggin BMP antagonist; format: functional, cell-based; settings: not given

Row | Compound | Activity
1 | Oc1ccc2cc1Oc1ccc(cc1)CC[C@H](O)CCCC2 [ACEROGENIN A] | inactive

test system: MC3T3-E1; assay: Induction of osteogenesis in mouse MC3T3-E1 cells assessed as cell differentiation at 30 uM after 6 days by alkaline phosphatase activity assay; format: functional, cell-based; settings: not given

Row | Compound | Activity
2 | Oc1ccc2cc1Oc1ccc(cc1)CCCC[C@@H](O)CC2 | Active
3 | C[C@H](O)CCc1ccc(O)cc1 | inactive
4 | Oc1ccc2cc1Oc1ccc(cc1)CC[C@H](O)CCCC2 [ACEROGENIN A] | Active
5 | OC[C@H]1O[C@@H](Oc2ccc3cc2Oc2ccc(cc2)CCCC[C@@H](O)CC3)[C@H](O)[C@@H](O)[C@@H]1O [ACEROSIDE B1] | Active
6 | OC[C@@]1(O)CO[C@@H](OC[C@H]2O[C@@H](O[C@@H]3CCCCc4ccc(O)c(c4)Oc4ccc(cc4)CC3)[C@H](O)[C@@H](O)[C@@H]2O)[C@@H]1O [ACEROSIDE III] | Active
7 | OC[C@H]1O[C@H](Oc2ccc3cc2Oc2ccc(cc2)CC[C@@H](O)CCCC3)[C@H](O)[C@@H](O)[C@@H]1O [ACEROSIDE I] | Active

test system: MC3T3-E1; assay: Induction of osteogenesis in mouse MC3T3-E1 cells assessed as increase in alkaline phosphatase activity at 30 uM after 6 days in presence of 0.1 uM LDN-193289 BMP receptor kinase inhibitor; format: functional, cell-based; settings: not given

Row | Compound | Activity
8 | Oc1ccc2cc1Oc1ccc(cc1)CC[C@H](O)CCCC2 [ACEROGENIN A] | inactive

test system: MC3T3-E1; assay: Induction of cells differentiation in mouse MC3T3-E1 cells assessed as increase in osteocalcin production after 14 days by EIA; format: functional, cell-based; settings: not given

Row | Compound | Activity
9 | Oc1ccc2cc1Oc1ccc(cc1)CCCC[C@@H](O)CC2 | Active
10 | Oc1ccc2cc1Oc1ccc(cc1)CC[C@H](O)CCCC2 [ACEROGENIN A] | Active
11 | OC[C@H]1O[C@@H](Oc2ccc3cc2Oc2ccc(cc2)CCCC[C@@H](O)CC3)[C@H](O)[C@@H](O)[C@@H]1O [ACEROSIDE B1] | Active
12 | OC[C@H]1O[C@H](Oc2ccc3cc2Oc2ccc(cc2)CC[C@@H](O)CCCC3)[C@H](O)[C@@H](O)[C@@H]1O [ACEROSIDE I] | Active

test system: MC3T3-E1; assay: Induction of osteogenesis in mouse MC3T3-E1 cells assessed as increase in alkaline phosphatase activity after 6 days; format: functional, cell-based; settings: not given

Row | Compound | Activity
13 | Oc1ccc2cc1Oc1ccc(cc1)CC[C@H](O)CCCC2 [ACEROGENIN A] | Dose-dependent effect

test system: MC3T3-E1; assay: Induction of osteogenesis in mouse MC3T3-E1 cells assessed as increase in alkaline phosphatase activity at 30 uM after 6 days in presence of 5 uM SB203580 p38 MAPK inhibitor; format: functional, cell-based; settings: not given

Row | Compound | Activity
14 | Oc1ccc2cc1Oc1ccc(cc1)CC[C@H](O)CCCC2 [ACEROGENIN A] | inactive

test system: MC3T3-E1; assay: Induction of cells differentiation in mouse MC3T3-E1 cells assessed as increase in mineralization after 14 days by Alizarin Red S staining; format: functional, cell-based; settings: not given

Row | Compound | Activity
15 | Oc1ccc2cc1Oc1ccc(cc1)CCCC[C@@H](O)CC2 | Dose-dependent effect
16 | Oc1ccc2cc1Oc1ccc(cc1)CC[C@H](O)CCCC2 [ACEROGENIN A] | Dose-dependent effect
17 | OC[C@H]1O[C@@H](Oc2ccc3cc2Oc2ccc(cc2)CCCC[C@@H](O)CC3)[C@H](O)[C@@H](O)[C@@H]1O [ACEROSIDE B1] | Dose-dependent effect
18 | OC[C@H]1O[C@H](Oc2ccc3cc2Oc2ccc(cc2)CC[C@@H](O)CCCC3)[C@H](O)[C@@H](O)[C@@H]1O [ACEROSIDE I] | Dose-dependent effect

test system: not listed separately; assay: Cytotoxicity against mouse MC3T3-E1 cells at 30 uM after 6 days; format: cell-based; settings: mc3t3-e1, 144 h

Row | Compound | Activity
19 | Oc1ccc2cc1Oc1ccc(cc1)CCCC[C@@H](O)CC2 | Non-toxic
20 | C[C@H](O)CCc1ccc(O)cc1 | Non-toxic
21 | Oc1ccc(CCCC[C@@H](O)CCc2ccc(O)cc2)cc1 | Toxic
22 | Oc1ccc2cc1Oc1ccc(cc1)CC[C@H](O)CCCC2 [ACEROGENIN A] | Non-toxic
23 | OC[C@H]1O[C@@H](Oc2ccc3cc2Oc2ccc(cc2)CCCC[C@@H](O)CC3)[C@H](O)[C@@H](O)[C@@H]1O [ACEROSIDE B1] | Non-toxic
24 | OC[C@@]1(O)CO[C@@H](OC[C@H]2O[C@@H](O[C@@H]3CCCCc4ccc(O)c(c4)Oc4ccc(cc4)CC3)[C@H](O)[C@@H](O)[C@@H]2O)[C@@H]1O [ACEROSIDE III] | Non-toxic
25 | OC[C@H]1O[C@H](Oc2ccc3cc2Oc2ccc(cc2)CC[C@@H](O)CCCC3)[C@H](O)[C@@H](O)[C@@H]1O [ACEROSIDE I] | Non-toxic
26 | Oc1cc(O)c2c(c1)O[C@H](c1ccc(O)c(O)c1)[C@@H](O)C2 [CIANIDANOL] | Non-toxic

species: Mus musculus; assay: Induction of osteogenesis in mouse primary calvarial cells assessed as increase in alkaline phosphatase activity measured by ALP staining after 14 days; format: functional; settings: not given

Row | Compound | Activity
27 | Oc1ccc2cc1Oc1ccc(cc1)CC[C@H](O)CCCC2 [ACEROGENIN A] | Active

test system: RAW264; assay: Induction of osteoclast differentiation in mouse RAW264 cells assessed as TRAP activity; format: functional, cell-based; settings: not given

Row | Compound | Activity
28 | Oc1ccc2cc1Oc1ccc(cc1)CCCC[C@@H](O)CC2 | inactive
29 | C[C@H](O)CCc1ccc(O)cc1 | inactive
30 | Oc1ccc(CCCC[C@@H](O)CCc2ccc(O)cc2)cc1 | inactive
31 | Oc1ccc2cc1Oc1ccc(cc1)CC[C@H](O)CCCC2 [ACEROGENIN A] | inactive
32 | OC[C@H]1O[C@@H](Oc2ccc3cc2Oc2ccc(cc2)CCCC[C@@H](O)CC3)[C@H](O)[C@@H](O)[C@@H]1O [ACEROSIDE B1] | inactive
33 | OC[C@@]1(O)CO[C@@H](OC[C@H]2O[C@@H](O[C@@H]3CCCCc4ccc(O)c(c4)Oc4ccc(cc4)CC3)[C@H](O)[C@@H](O)[C@@H]2O)[C@@H]1O [ACEROSIDE III] | inactive
34 | OC[C@H]1O[C@H](Oc2ccc3cc2Oc2ccc(cc2)CC[C@@H](O)CCCC3)[C@H](O)[C@@H](O)[C@@H]1O [ACEROSIDE I] | inactive
35 | Oc1cc(O)c2c(c1)O[C@H](c1ccc(O)c(O)c1)[C@@H](O)C2 [CIANIDANOL] | inactive
